Data reported in US4225526A, “8-[(4-Aminophenyl)sulfonyl]amino-2-naphthalenyl phosphorodiamidate” (Morton-Norwich Products, Inc., priority 1979, dated 1980).
pIC50: −log10 of the molar value.

Target: T1, urease of intact Proteus mirabilis cells (Proteus mirabilis, UniProt P17086)
T1 construct: using intact Proteus mirabilis cells as the source of urease; endogenous in cells; host or cells: intact Proteus mirabilis cells
Assay: anti-urease potency using intact Proteus mirabilis cells
Assay type: cell-based
Details: 40 minutes preincubation, pH 8.0; ammonia formed in five minutes after addition of urea; read-out: concentration evincing 50% inhibition of the urease of intact Proteus mirabilis cells
Description: The anti-urease potency of the compound of this invention was determined using intact Proteus mirabilis cells as the source of urease. Compounds were preincubated with Proteus mirabilis cells suspended in a saline solution (0.1 molar) buffered with 0.1 molar tris(hydroxymethyl)aminomethane (pH 8.0). After 40 minutes preincubation, the remaining urease activity was determined by collecting the ammonia formed in five minutes after the addition of the substrate, urea. Ammonia assays were carried out according to the procedure of Seligson and Seligson [J. Lab. Clin. Med. 38, 324-330 (1951)]. Percent inhibition was calculated by comparing the amount of ammonia generated by cells preincubated with 8-[(4-aminophenyl)sulfonyl]amino-2-naphthalenyl phosphorodiamidate with the controls in which preincubation was carried out in the absence of compound.

T1 sequence (P17088 whole entry): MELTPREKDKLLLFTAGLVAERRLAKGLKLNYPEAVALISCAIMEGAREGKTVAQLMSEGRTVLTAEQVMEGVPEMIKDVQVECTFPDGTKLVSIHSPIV
T1 sequence (P17087 whole entry, further chain): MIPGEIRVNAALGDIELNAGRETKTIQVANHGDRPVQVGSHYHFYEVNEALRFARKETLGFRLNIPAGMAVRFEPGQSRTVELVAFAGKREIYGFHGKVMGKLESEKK
T1 sequence (P17086 whole entry): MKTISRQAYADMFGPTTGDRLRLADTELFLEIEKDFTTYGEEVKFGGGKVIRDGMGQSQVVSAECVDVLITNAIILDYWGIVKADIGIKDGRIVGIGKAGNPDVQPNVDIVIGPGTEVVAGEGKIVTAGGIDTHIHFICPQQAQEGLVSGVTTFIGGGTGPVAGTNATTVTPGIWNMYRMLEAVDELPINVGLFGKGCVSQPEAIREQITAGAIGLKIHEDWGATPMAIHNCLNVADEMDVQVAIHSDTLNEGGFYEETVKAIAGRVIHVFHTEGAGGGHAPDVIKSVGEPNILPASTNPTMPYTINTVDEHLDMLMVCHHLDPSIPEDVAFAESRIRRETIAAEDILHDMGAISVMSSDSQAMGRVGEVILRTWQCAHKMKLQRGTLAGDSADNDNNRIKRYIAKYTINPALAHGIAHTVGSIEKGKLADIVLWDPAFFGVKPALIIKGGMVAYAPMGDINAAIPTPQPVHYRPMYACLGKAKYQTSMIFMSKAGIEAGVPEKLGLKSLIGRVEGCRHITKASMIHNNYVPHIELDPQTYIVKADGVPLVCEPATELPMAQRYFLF

Nc1ccc(S(=O)(=O)Nc2cccc3ccc(OP(N)(N)=O)cc23)cc1 [this compound, 8-[(4-aminophenyl)sulfonyl]amino-2-naphthalenyl phosphorodiamidate]
pIC50: 6.40
